Laboratory results published in PMC10742508, “The Structure and Nucleotide-Binding Characteristics of Regulated Cystathionine β-Synthase Domain-Containing Pyrophosphatase without One Catalytic Domain” (International Journal of Molecular Sciences, 2023).
pKd: −log10 of the molar value.

Assays:
Format in all cases: binding
ΔdhPPase [1] = target: T1, ΔdhPPase (Desulfitobacterium hafniense, UniProt B8FP42); test: ThermoFluor, SYPRO Orange; settings: 200 µM AMP, 2 mM MgCl2, 0.1 mM CoCl2, 150 mM KCl, pH 7.2; peak II = regulatory part
T1 construct: gene Dhaf_1515
T1 sequence (B8FP42 1-423): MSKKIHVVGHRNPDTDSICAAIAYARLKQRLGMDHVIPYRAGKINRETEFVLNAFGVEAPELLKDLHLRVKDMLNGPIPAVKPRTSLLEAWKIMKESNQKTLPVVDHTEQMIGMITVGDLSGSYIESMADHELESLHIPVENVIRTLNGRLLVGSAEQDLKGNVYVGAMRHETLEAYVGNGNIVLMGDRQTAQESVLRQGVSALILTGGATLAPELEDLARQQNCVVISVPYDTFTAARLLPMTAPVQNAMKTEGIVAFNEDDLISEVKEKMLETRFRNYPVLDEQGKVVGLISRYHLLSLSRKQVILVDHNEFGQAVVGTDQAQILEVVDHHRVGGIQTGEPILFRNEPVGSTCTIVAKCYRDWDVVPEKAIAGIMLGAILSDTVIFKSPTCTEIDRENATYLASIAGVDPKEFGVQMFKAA
Text: ThermoFluor, SYPRO Orange on ΔdhPPase

[2] = target: T2, CDC (separate regulatory part of dhPPase) (Desulfitobacterium hafniense, UniProt B8FP42); test: ThermoFluor, SYPRO Orange; settings: 2 mM MgCl2, 0.1 mM CoCl2, 150 mM KCl, pH 7.2
T2 construct: gene Dhaf_1515; regulatory insert only (CBS1-DRTGG-CBS2)
Text: ThermoFluor, SYPRO Orange on CDC (separate regulatory part of dhPPase)

[3] = target: T3, dhPPase (full-size CBS-PPase) (Desulfitobacterium hafniense, UniProt B8FP42); test: ThermoFluor, SYPRO Orange; settings: 200 µM AMP, 2 mM MgCl2, 0.1 mM CoCl2, 150 mM KCl, pH 7.2; peak II = regulatory part
T3 construct: gene Dhaf_1515
Text: ThermoFluor, SYPRO Orange on dhPPase (full-size CBS-PPase)

ΔdhPPase [4] = target: T4, ΔdhPPase (Desulfitobacterium hafniense, UniProt B8FP42, DEL425-544); test: isothermal titration calorimetry, single-site model; settings: read-out: KN
T4 construct: gene Dhaf_1515
T4 sequence (B8FP42 1-423): T1 sequence (B8FP42 1-423)
Text: isothermal titration calorimetry, single-site model on ΔdhPPase

[5] = target: T3, dhPPase (full-size CBS-PPase); test: as above; settings: read-out: KN
Text: isothermal titration calorimetry, single-site model on dhPPase (full-size CBS-PPase)

T3 sequence (B8FP42 entry or part of it): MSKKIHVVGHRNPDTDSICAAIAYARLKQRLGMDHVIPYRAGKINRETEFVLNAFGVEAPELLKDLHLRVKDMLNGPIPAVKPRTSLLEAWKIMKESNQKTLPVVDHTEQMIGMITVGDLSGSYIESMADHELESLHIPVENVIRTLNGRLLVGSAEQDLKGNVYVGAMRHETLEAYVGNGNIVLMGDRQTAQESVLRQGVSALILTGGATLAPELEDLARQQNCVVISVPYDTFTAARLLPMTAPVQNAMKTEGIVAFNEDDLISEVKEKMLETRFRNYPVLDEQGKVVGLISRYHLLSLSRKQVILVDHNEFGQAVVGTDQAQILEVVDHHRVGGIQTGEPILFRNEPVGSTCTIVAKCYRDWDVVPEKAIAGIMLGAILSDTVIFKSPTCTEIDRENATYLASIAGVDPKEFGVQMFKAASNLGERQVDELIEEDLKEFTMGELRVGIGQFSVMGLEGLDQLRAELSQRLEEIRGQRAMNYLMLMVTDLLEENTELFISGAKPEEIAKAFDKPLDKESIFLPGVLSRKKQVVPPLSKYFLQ

SMILES | Tm, °C / ΔdhPPase (ΔdhPPase [1]) | Tm, °C / CDC ([2]; 200 µM AMP) | Tm, °C / dhPPase [3] | pKd (ΔdhPPase [4]) | Tm, °C / CDC ([2]; 20 µM Ap4A) | pKd [5]
Nc1ncnc2c1ncn2[C@@H]1O[C@H](COP(=O)(O)O)[C@@H](O)[C@H]1O [AMP] | 68.6 °C | 66.5 °C | 67.4 °C |  |  | 
Nc1ncnc2c1ncn2[C@@H]1O[C@H](COP(=O)(O)OP(=O)(O)OP(=O)(O)OP(=O)(O)OC[C@H]2O[C@@H](n3cnc4c(N)ncnc43)[C@H](O)[C@@H]2O)[C@@H](O)[C@H]1O [Ap4A] |  |  |  | > 8.00 | 61.5 °C | 7.00 to 8.00
